Laboratory results published in PubChem BioAssay (NCI).
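Here, GI50 denotes the concentration required for 50% inhibition of growth. TGI denotes the concentration required for complete inhibition of growth.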

Key:
Experiment in all cases: inhibition of tumour cell growth, NCI panel, 384-well format
[1] = system: 786-0 renal
[2] = system: A498 renal
[3] = system: A549 NSCLC
[4] = system: ACHN renal
[5] = system: BT-549 breast
[6] = system: CAKI-1 renal
[7] = system: COLO 205 colon
[8] = system: DU-145 prostate
[9] = system: HCC-2998 colon
[10] = system: HCT-116 colon
[11] = system: HCT-15 colon
[12] = system: HL-60(TB) leukemia
[13] = system: HOP-62 NSCLC
[14] = system: HOP-92 NSCLC
[15] = system: HS 578T breast
[16] = system: HT29 colon
[17] = system: IGROV1 ovarian
[18] = system: KM12 colon
[19] = system: LOX IMVI melanoma
[20] = system: M14 melanoma
[21] = system: MALME-3M melanoma
[22] = system: MCF7 breast
[23] = system: MDA-MB-231 breast
[24] = system: MDA-MB-435 melanoma
[25] = system: MDA-MB-468 breast
[26] = system: MOLT-4 leukemia
[27] = system: NCI-H226 lung
[28] = system: NCI-H23 lung
[29] = system: NCI-H322M lung
[30] = system: NCI-H460 NSCLC
[31] = system: NCI-H522 lung
[32] = system: NCI/ADR-RES ovarian
[33] = system: OVCAR-3 ovarian
[34] = system: OVCAR-4 ovarian
[35] = system: OVCAR-5 ovarian
[36] = system: OVCAR-8 ovarian
[37] = system: PC-3 prostate
[38] = system: RPMI-8226 leukemia
[39] = system: SF-268 CNS
[40] = system: SF-295 CNS
[41] = system: SF-539 CNS
[42] = system: SK-MEL-28 melanoma
[43] = system: SK-MEL-5 melanoma
[44] = system: SK-OV-3 ovarian
[45] = system: SN12C renal
[46] = system: SNB-19 CNS
[47] = system: SR leukemia
[48] = system: SW-620 colon
[49] = system: T-47D breast
[50] = system: TK-10 renal
[51] = system: U251 glioblastoma
[52] = system: UACC-257 melanoma
[53] = system: UACC-62 melanoma

CO[C@H]1C[C@@H]2CC[C@@H](C)[C@@](O)(O2)C(=O)C(=O)N2CCCC[C@H]2C(=O)O[C@H]([C@H](C)C[C@@H]2CC[C@@H](OC(=O)C(C)(CO)CO)[C@H](OC)C2)CC(=O)[C@H](C)/C=C(\C)[C@@H](O)[C@@H](OC)C(=O)[C@H](C)C[C@H](C)/C=C/C=C/C=C/1C
GI50 [1]: 0.148 µM | TGI [1]: 14.2 µM | TGI [2]: 14.5 µM | TGI [3]: 15.4 µM | GI50 [4]: 2.31 µM | TGI [4]: 15.1 µM | TGI [5]: 1.7 µM | GI50 [6]: 1.26 µM | TGI [6]: 15.1 µM | GI50 [7]: 11.2 µM | TGI [7]: 23.3 µM | GI50 [8]: 1.05 µM | TGI [8]: 15.7 µM | GI50 [9]: 1.2 µM | TGI [9]: 11.6 µM | GI50 [10]: 3.23 µM | TGI [10]: 15.5 µM | GI50 [11]: 0.473 µM | TGI [11]: 15 µM | GI50 [12]: 1.63 µM | TGI [12]: 3 µM | GI50 [13]: 0.233 µM | TGI [13]: 13.3 µM | GI50 [14]: 2.75 µM | TGI [14]: 8.39 µM | TGI [15]: 1.74 µM | GI50 [16]: 2.33 µM | TGI [16]: 12.8 µM | TGI [17]: 5.04 µM | GI50 [18]: 2.22 µM | TGI [18]: 17.4 µM | GI50 [19]: 1.19 µM | TGI [19]: 11.3 µM | GI50 [20]: 5.55 µM | TGI [20]: 19.8 µM | TGI [21]: 3.29 µM | TGI [22]: 10.1 µM | GI50 [23]: 1.82 µM | TGI [23]: 7.89 µM | GI50 [24]: 11.4 µM | TGI [24]: 23.6 µM | TGI [25]: 2.53 µM | TGI [26]: 1.54 µM | GI50 [27]: 1.11 µM | TGI [27]: 4.08 µM | GI50 [28]: 1.93 µM | TGI [28]: 15.7 µM | GI50 [29]: 1.32 µM | TGI [29]: 12.7 µM | GI50 [30]: 0.404 µM | TGI [30]: 15.5 µM | GI50 [31]: 2.23 µM | TGI [31]: 11.5 µM | GI50 [32]: 4.89 µM | TGI [32]: 22.5 µM | GI50 [33]: 0.867 µM | TGI [33]: 13.9 µM | GI50 [34]: 1.53 µM | TGI [34]: 12.6 µM | GI50 [35]: 12.5 µM | TGI [35]: 25.4 µM | GI50 [36]: 0.791 µM | TGI [36]: 15.9 µM | GI50 [37]: 1.16 µM | TGI [37]: 11.8 µM | TGI [38]: 1.06 µM | GI50 [39]: 2.81 µM | TGI [39]: 14.1 µM | TGI [40]: 3.62 µM | GI50 [41]: 1.12 µM | TGI [41]: 15.1 µM | GI50 [42]: 3.04 µM | TGI [42]: 14.7 µM | GI50 [43]: 1.63 µM | TGI [43]: 11.4 µM | GI50 [44]: 11.6 µM | TGI [44]: 27.5 µM | GI50 [45]: 4.56 µM | TGI [45]: 19.2 µM | GI50 [46]: 5.96 µM | TGI [46]: 20.2 µM | TGI [47]: 0.441 µM | GI50 [48]: 11.2 µM | TGI [48]: 23.9 µM | TGI [49]: 5.11 µM | GI50 [50]: 12 µM | TGI [50]: 26.3 µM | GI50 [51]: 2.22 µM | TGI [51]: 14 µM | GI50 [52]: 8.32 µM | TGI [52]: 20.3 µM | GI50 [53]: 1.79 µM | TGI [53]: 15 µM
